Among the data in PubChem BioAssay AID1259407 (Chemical Carcinogenesis Research Information System (CCRIS), 2018) are mutagenic call values, retold here.

Molecules are shown by their SMILES. Activity calls are given as the source filed them. How the calls were made is not given here.

The subject of the data set is CCRIS mutagenicity, Ames/micronucleus/aberration tests. Briefly: CCRIS mutagenicity studies.
Where [1] appears, read: Test System: AMES SALMONELLA TYPHIMURIUM, Strain/Indicator: TA98, Metabolic Activation: NONE, Method: PREINCUBATION
The mark [2] stands for this setting: Test System: AMES SALMONELLA TYPHIMURIUM, Strain/Indicator: TA100, Metabolic Activation: NONE, Method: PREINCUBATION
Setting [3] is: Test System: AMES SALMONELLA TYPHIMURIUM, Strain/Indicator: TA1535, Metabolic Activation: NONE, Method: PREINCUBATION
The mark [4] stands for this setting: Test System: AMES SALMONELLA TYPHIMURIUM, Strain/Indicator: TA1537, Metabolic Activation: NONE, Method: PREINCUBATION

As for `Nc1ccc(Sc2ccc(N)cc2)cc1`, the mutagenic call runs as follows: (Test System: AMES SALMONELLA TYPHIMURIUM, Strain/Indicator: TA97, Metabolic Activation: HAMSTER, LIVER, S-9, AROCLOR 1254 (10%), Method: PREINCUBATION) “active; positive”; (Test System: AMES SALMONELLA TYPHIMURIUM, Strain/Indicator: TA97, Metabolic Activation: NONE, Method: PREINCUBATION) “inactive; negative”; (Test System: AMES SALMONELLA TYPHIMURIUM, Strain/Indicator: TA97, Metabolic Activation: RAT, LIVER, S-9, AROCLOR 1254 (10%), Method: PREINCUBATION) “active; positive”; (Test System: AMES SALMONELLA TYPHIMURIUM, Strain/Indicator: TA98, Metabolic Activation: HAMSTER, LIVER, S-9, AROCLOR 1254 (10%), Method: PREINCUBATION) “active; positive”; under setting [1], “inactive; negative”; (Test System: AMES SALMONELLA TYPHIMURIUM, Strain/Indicator: TA98, Metabolic Activation: RAT, LIVER, S-9, AROCLOR 1254 (10%), Method: PREINCUBATION) “active; positive”. In addition, the mutagenic call is “active; positive” (Test System: AMES SALMONELLA TYPHIMURIUM, Strain/Indicator: TA98, Metabolic Activation: RAT, LIVER, S-9, PCB, Method: PREINCUBATION); “active; positive” (Test System: AMES SALMONELLA TYPHIMURIUM, Strain/Indicator: TA100, Metabolic Activation: HAMSTER, LIVER, S-9, AROCLOR 1254 (10%), Method: PREINCUBATION); “active; positive” under setting [2]; “active; positive” (Test System: AMES SALMONELLA TYPHIMURIUM, Strain/Indicator: TA100, Metabolic Activation: RAT, LIVER, S-9, AROCLOR 1254 (10%), Method: PREINCUBATION); “active; positive” (Test System: AMES SALMONELLA TYPHIMURIUM, Strain/Indicator: TA100, Metabolic Activation: RAT, LIVER, S-9, PCB, Method: PREINCUBATION); “inactive; negative” (Test System: AMES SALMONELLA TYPHIMURIUM, Strain/Indicator: TA1535, Metabolic Activation: HAMSTER, LIVER, S-9, AROCLOR 1254 (10%), Method: PREINCUBATION). In addition, the mutagenic call reads like this: under setting [3], “inactive; negative”; (Test System: AMES SALMONELLA TYPHIMURIUM, Strain/Indicator: TA1535, Metabolic Activation: RAT, LIVER, S-9, AROCLOR 1254 (10%), Method: PREINCUBATION) “inactive; negative”; (Test System: AMES SALMONELLA TYPHIMURIUM, Strain/Indicator: TA1537, Metabolic Activation: HAMSTER, LIVER, S-9, AROCLOR 1254 (10%), Method: PREINCUBATION) “inactive; negative”; under setting [4], “inactive; negative”; (Test System: AMES SALMONELLA TYPHIMURIUM, Strain/Indicator: TA1537, Metabolic Activation: RAT, LIVER, S-9, AROCLOR 1254 (10%), Method: PREINCUBATION) “inactive; negative”.
Regarding `Nc1c([N+](=O)[O-])cccc1[N+](=O)[O-]`, the mutagenic call by setting is: under setting [1], “active; positive”; (Test System: AMES SALMONELLA TYPHIMURIUM, Strain/Indicator: TA98, Metabolic Activation: RAT, LIVER, S-9, KANECHLOR 500, Method: PREINCUBATION) “active; positive”; under setting [2], “active; positive”; (Test System: AMES SALMONELLA TYPHIMURIUM, Strain/Indicator: TA100, Metabolic Activation: RAT, LIVER, S-9, KANECHLOR 500, Method: PREINCUBATION) “active; positive”.
Regarding `[Cl][Cr]([Cl])[Cl]`, the mutagenic call was “active; positive” (End Point: IN VITRO MICRONUCLEUS, Test System: CHL/IU CELLS, Metabolic Activation: NONE); “active; positive” (Test System: AMES SALMONELLA TYPHIMURIUM, Strain/Indicator: TA94, Metabolic Activation: NONE, Method: STANDARD PLATE); “inactive; negative” (Test System: AMES SALMONELLA TYPHIMURIUM, Strain/Indicator: TA98, Metabolic Activation: HAMSTER, LIVER, S-9, AROCLOR 1254, Method: STANDARD PLATE); “inactive; negative” under setting [1]; “inactive; negative” (Test System: AMES SALMONELLA TYPHIMURIUM, Strain/Indicator: TA98, Metabolic Activation: RAT, LIVER, S-9, AROCLOR 1254, Method: STANDARD PLATE); “inactive; negative” (Test System: AMES SALMONELLA TYPHIMURIUM, Strain/Indicator: TA98, Metabolic Activation: RAT, LIVER, S-9, PHENOBARBITAL AND BETA-NAPHTHOFLAVONE, Method: PREINCUBATION). The mutagenic call was “inactive; negative” (Test System: AMES SALMONELLA TYPHIMURIUM, Strain/Indicator: TA100, Metabolic Activation: HAMSTER, LIVER, S-9, AROCLOR 1254, Method: STANDARD PLATE); “inactive; negative” under setting [2]; “inactive; negative” (Test System: AMES SALMONELLA TYPHIMURIUM, Strain/Indicator: TA100, Metabolic Activation: NONE, Method: STANDARD PLATE); “inactive; negative” (Test System: AMES SALMONELLA TYPHIMURIUM, Strain/Indicator: TA100, Metabolic Activation: RAT, LIVER, S-9, AROCLOR 1254, Method: STANDARD PLATE); “inactive; negative” (Test System: AMES SALMONELLA TYPHIMURIUM, Strain/Indicator: TA100, Metabolic Activation: RAT, LIVER, S-9, PHENOBARBITAL AND BETA-NAPHTHOFLAVONE, Method: PREINCUBATION); “active; positive” (Test System: AMES SALMONELLA TYPHIMURIUM, Strain/Indicator: TA102, Metabolic Activation: HAMSTER, LIVER, S-9, AROCLOR 1254, Method: STANDARD PLATE). For the same compound, the mutagenic call is “active; positive” (Test System: AMES SALMONELLA TYPHIMURIUM, Strain/Indicator: TA102, Metabolic Activation: RAT, LIVER, S-9, AROCLOR 1254, Method: STANDARD PLATE); “inactive; negative” (Test System: AMES SALMONELLA TYPHIMURIUM, Strain/Indicator: TA1535, Metabolic Activation: HAMSTER, LIVER, S-9, AROCLOR 1254, Method: STANDARD PLATE); “inactive; negative” under setting [3]; “inactive; negative” (Test System: AMES SALMONELLA TYPHIMURIUM, Strain/Indicator: TA1535, Metabolic Activation: NONE, Method: STANDARD PLATE); “inactive; negative” (Test System: AMES SALMONELLA TYPHIMURIUM, Strain/Indicator: TA1535, Metabolic Activation: RAT, LIVER, S-9, AROCLOR 1254, Method: STANDARD PLATE); “inactive; negative” (Test System: AMES SALMONELLA TYPHIMURIUM, Strain/Indicator: TA1535, Metabolic Activation: RAT, LIVER, S-9, PHENOBARBITAL AND BETA-NAPHTHOFLAVONE, Method: PREINCUBATION). Moreover, the mutagenic call (Test System: AMES SALMONELLA TYPHIMURIUM, Strain/Indicator: TA1537, Metabolic Activation: HAMSTER, LIVER, S-9, AROCLOR 1254, Method: STANDARD PLATE) is “inactive; negative”; the mutagenic call under setting [4] was “inactive; negative”; the mutagenic call (Test System: AMES SALMONELLA TYPHIMURIUM, Strain/Indicator: TA1537, Metabolic Activation: NONE, Method: STANDARD PLATE) is “inactive; negative”; the mutagenic call (Test System: AMES SALMONELLA TYPHIMURIUM, Strain/Indicator: TA1537, Metabolic Activation: RAT, LIVER, S-9, AROCLOR 1254, Method: STANDARD PLATE) is “inactive; negative”; the mutagenic call (Test System: AMES SALMONELLA TYPHIMURIUM, Strain/Indicator: TA1537, Metabolic Activation: RAT, LIVER, S-9, PHENOBARBITAL AND BETA-NAPHTHOFLAVONE, Method: PREINCUBATION) was “inactive; negative”; the mutagenic call (Test System: AMES SALMONELLA TYPHIMURIUM, Strain/Indicator: TA1538, Metabolic Activation: NONE, Method: PREINCUBATION) is “inactive; negative”. The mutagenic call runs as follows: (Test System: AMES SALMONELLA TYPHIMURIUM, Strain/Indicator: TA1538, Metabolic Activation: RAT, LIVER, S-9, PHENOBARBITAL AND BETA-NAPHTHOFLAVONE, Method: PREINCUBATION) “inactive; negative”; (Test System: CHINESE HAMSTER OVARY CELLS, Strain/Indicator: CHO CELLS (HPRT)/6-THIOGUANINE, Metabolic Activation: NONE, Method: STANDARD PLATE) “active; positive”; (Test System: E. COLI, Strain/Indicator: WP2 UVRA, Metabolic Activation: NONE, Method: SPOT TEST) “inactive; negative”; (Test System: E. COLI, Strain/Indicator: WP2UVRA, Metabolic Activation: RAT LIVER S-9, PHENOBARBITAL AND BETA-NAPHTHOFLAVONE, Method: PREINCUBATION) “inactive; negative”; (Test System: E.COLI, Strain/Indicator: WP2UVRA, Metabolic Activation: NONE, Method: PREINCUBATION) “inactive; negative”; (Test System: Mouse lymphoma, Strain/Indicator: L5178Y (tk+/tk-), Metabolic Activation: None, Method: Suspension/plate) “inactive; negative”. Moreover, where the note is “Test System: Mouse lymphoma, Strain/Indicator: L5178Y (tk+/tk-), Metabolic Activation: Rat, Liver, S-9, Aroclor 1254, Method: Suspension/plate”, the mutagenic call was “active; equivocal (previous evaluation positive)”.
